The values that follow come from patent EP1071442B9, “METHODS AND COMPOSITIONS FOR PEPTIDE SYNTHESIS (T-20)” (priority 1998, dated 1999).

A short description of data set [1]: thermal stability of T-20 fragments (water-saturated or dry) at elevated temperatures, purity change by HPLC. The format is physicochemical. The protocol: A series of experiments were conducted at to characterize the thermal stability of the intermediate T-20 fragments. T-20 fragments were saturated with water, filtered and then placed in enclosed containers and exposed to elevated temperatures. At several time points samples were collected and analyzed by HPLC methods to access the purity changes. Stability of the dry T-20 fragments was also characterized by thermogravimetric analysis (TGA).

The structures appear in SMILES notation. Residues, ends and D or L forms follow the SMILES beside them. *: point of attachment. NHTrityl = c1ccc(C(N*)(c2ccccc2)c2ccccc2)cc1; Fmoc = O=C(OCC1c2ccccc2-c2ccccc21)*; Boc = CC(C)(C)OC(=O)*; OtBu = CC(C)(C)O*; tBu = CC(C)(C)*

`CC(C)C[C@H](NC(=O)[C@H](CCC(=O)OC(C)(C)C)NC(=O)[C@H](CC(C)C)NC(=O)[C@H](CC(C)C)NC(=O)[C@H](CCC(=O)OC(C)(C)C)NC(=O)[C@H](CCC(=O)NC(c1ccccc1)(c1ccccc1)c1ccccc1)NC(=O)[C@H](CCC(=O)OC(C)(C)C)NC(=O)[C@H](CC(=O)NC(c1ccccc1)(c1ccccc1)c1ccccc1)NC(=O)[C@H](CCCCNC(=O)OC(C)(C)C)NC(=O)[C@H](CCC(=O)OC(C)(C)C)NC(=O)OCC1c2ccccc2-c2ccccc21)C(=O)O` [F(17-26)-OH] (Fmoc-E(OtBu)K(Boc)D(NHTrityl)E(OtBu)E(NHTrityl)E(OtBu)LLE(OtBu)L-OH): the “stability in 1% TFA/DCM” value was 1 %/day.
As to `CC(C)C[C@H](NC(=O)[C@H](COC(C)(C)C)NC(=O)[C@H](C)NC(=O)[C@H](Cc1cn(C(=O)OC(C)(C)C)c2ccccc12)NC(=O)[C@H](CCCCNC(=O)OC(C)(C)C)NC(=O)[C@H](CC(=O)OC(C)(C)C)NC(=O)OCC1c2ccccc2-c2ccccc21)C(=O)N[C@@H](Cc1cn(C(=O)OC(C)(C)C)c2ccccc12)C(=O)N[C@@H](CC(=O)NC(c1ccccc1)(c1ccccc1)c1ccccc1)C(=O)N[C@@H](Cc1cn(C(=O)OC(C)(C)C)c2ccccc12)C(=O)N[C@@H](Cc1ccccc1)C(N)=O` [F(27-36)-NH2] (Fmoc-D(OtBu)K(Boc)W(Boc)AS(tBu)LW(Boc)D(NHTrityl)W(Boc)F-NH2), the degradation in data set [1] (after 24 hours at 80 °C) is recorded as 1.4%. For the same compound, the stability to drying entry in data set [1] (drying at 40 °C) is reported as “stable”.
